Seven compounds from patent US20250368648A1, “MULTI-CYCLIC IRAK AND FLT3 INHIBITING COMPOUNDS AND USES THEREOF” (CHILDREN'S HOSPITAL MEDICAL CENTER, priority 2022, published 2025) can be followed below.

SMILES strings stand for the structures.

The target in this assay is T1, IRAK1 (Homo sapiens, UniProt P51617).
T1 construct: purchased RBC (Reaction Biology) HotSpot assay
T1 sequence (P51617 whole entry): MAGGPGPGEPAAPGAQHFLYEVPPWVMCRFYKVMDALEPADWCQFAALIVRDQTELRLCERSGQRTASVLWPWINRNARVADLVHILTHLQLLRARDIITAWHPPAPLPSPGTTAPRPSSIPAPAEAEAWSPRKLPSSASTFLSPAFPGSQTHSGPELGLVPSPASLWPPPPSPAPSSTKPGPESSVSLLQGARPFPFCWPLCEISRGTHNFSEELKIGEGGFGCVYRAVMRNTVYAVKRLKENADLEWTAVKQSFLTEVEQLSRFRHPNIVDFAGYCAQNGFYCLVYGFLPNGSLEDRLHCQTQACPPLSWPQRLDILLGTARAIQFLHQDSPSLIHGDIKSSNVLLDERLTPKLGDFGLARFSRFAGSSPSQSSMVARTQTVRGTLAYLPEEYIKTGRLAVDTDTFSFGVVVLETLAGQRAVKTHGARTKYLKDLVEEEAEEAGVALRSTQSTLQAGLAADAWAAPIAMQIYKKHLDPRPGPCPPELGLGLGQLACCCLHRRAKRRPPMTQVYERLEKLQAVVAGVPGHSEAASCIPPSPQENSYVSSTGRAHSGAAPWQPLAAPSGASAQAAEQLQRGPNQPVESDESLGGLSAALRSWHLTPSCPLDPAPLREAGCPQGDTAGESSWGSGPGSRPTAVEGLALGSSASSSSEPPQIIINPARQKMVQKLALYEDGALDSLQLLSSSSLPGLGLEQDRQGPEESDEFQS
The experiment in a line: RBC HotSpot Kinase Assay, IRAK1. The assay is classed as biochemical. Particulars: HotSpot functional assay, isolated kinase enzyme, 33P-ATP. In outline: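 Isolated kinases, possibly truncated or lacking regulatory receptor regions, were preincubated with compound for 20 min at room temp in 20 mM Hepes pH 7.5, 10 mM MgCl2, 1 mM EGTA, 2 mM DTT, 1% DMSO. Reactions were started with ^33P-ATP and run 2 h at room temperature; activity was read by P81 filter binding.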
In turn, `COc1cc2ncc(-c3nc(N[C@H]4CNC[C@@H]4F)c(F)cc3F)n2nc1C1CC2(CCC2)C1` [Compound 12a, 3,5-difluoro-N-((3S,4S)-4-fluoropyrrolidin-3-yl)-6-(7-methoxy-6-(spiro[3.3]heptan-2-yl)imidazo[1,2-b]pyridazin-3-yl)pyridin-2-amine] showed an IC50 of 88 nM.

On to `COc1cc2ncc(-c3nc(N[C@@H]4CCCNC4)c(F)cc3F)n2nc1C(C)(O)C(F)(F)F` (single isomer, unassigned) [Compound 81a], for which inhibition was half-maximal at 589 nM (IC50).

As for `COc1cc2ncc(-c3nc(N[C@H]4CNCC[C@@H]4F)c(F)cc3F)n2nc1C(C)(O)C(F)(F)F` (single isomer, unassigned) [Compound 77a], the midpoint of inhibition, the IC50, lay at 362 nM. `COc1cc2ncc(-c3nc(N[C@H]4CNCC[C@@H]4F)c(F)cc3F)n2nc1C1CC2(CCC2)C1` [Compound 10a, 3,5-difluoro-N-((3S,4S)-4-fluoropiperidin-3-yl)-6-(7-methoxy-6-(spiro[3.3]heptan-2-yl)imidazo[1,2-b]pyridazin-3-yl)pyridin-2-amine] had an IC50 of 72 nM. Then `COc1cc2ncc(-c3nc(N[C@H]4CNC[C@@H]4F)c(F)cc3F)n2nc1C(C)(O)C(F)(F)F` (single isomer, unassigned) [Compound 80a], with 1550 nM; and `COc1cc2ncc(-c3nc(N[C@H]4CNCC[C@@H]4F)c(F)cc3F)n2nc1C1CCC1` [Compound 15a, 6-(6-cyclobutyl-7-methoxyimidazo[1,2-b]pyridazin-3-yl)-3,5-difluoro-N-((3S,4S)-4-fluoropiperidin-3-yl)pyridin-2-amine], with 12 nM; and `COc1cc2ncc(-c3nc(N[C@H]4CNCC[C@@H]4F)c(F)cc3F)n2nc1C12CC(C1)C2` [Compound 67a, 6-(6-(bicyclo[1.1.1]pentan-1-yl)-7-methoxyimidazo[1,2-b]pyridazin-3-yl)-3,5-difluoro-N-((3S,4S)-4-fluoropiperidin-3-yl)pyridin-2-amine], with 9 nM.
